From patent US20250031744A1, “Methods and Compositions for Managing Blood Glucose Levels Using Rare Sugars” (DiaVita Therapeutics LLC, priority 2023, published 2025)

Key:
[1] = system: subjects; assay: Experimental treatment with tagatose alone, gastrointestinal side effects; type: in vivo, human; details: no co-administration of allulose or ginger; treatment stopped after a couple of days
Description: Both tagatose and allulose can give rise to significant gastrointestinal side effects (e.g., bloating, flatulence, abdominal pain, diarrhea). In our personal experience and anecdotally, the GI side effects are more significant for tagatose than allulose.

[2] = system: subject with type 1 diabetes; assay: Pilot open-label observational study with continuous glucose monitoring, treatment three times per day before meals (Example 1); type: in vivo, human; details: 7.5 g tagatose prior to meals without allulose or ginger
Experimental: Example 1. A pilot, open-label observational study was conducted on a subject with type 1 diabetes. The subject used a Dexcom® continuous glucose monitoring system which recorded blood sugar levels every five minutes. The subject first completed an extensive control period for roughly two months to obtain background blood sugar levels.
Subsequently, the subject was administered numerous treatment protocols separated by washout periods of at least 7 days (typically two weeks). […] The subject completed treatments with the following active ingredients: (i) Experimental Treatment 1: tagatose plus allulose plus ginger, (ii) Experimental Treatment 2: tagatose plus ginger, (iii) Experimental Treatment 3: allulose plus ginger, and (iv) Experimental Treatment 4: a second treatment course comprising tagatose plus allulose plus ginger. […]
Blood sugar levels were recorded every five minutes using the continuous glucose monitoring system. Primary endpoints were (i) average blood sugar level over the course of treatment, (ii) number of five minute periods with blood sugar level over 180 mg/dL (“time with high blood sugar”) and (iii) “hyperglycemia index”, calculated as the fraction of time with blood sugar level over 250 mg/dL multiplied by the average magnitude of the these hyperglycemic periods (defined as the difference in mg/dL between the recorded blood sugar level and 250). […]

Structure (SMILES): O=C(CO)[C@@H](O)[C@@H](O)[C@H](O)CO [tagatose]
- GI side effects of tagatose alone [1]: unpleasant GI side effects reported by a majority of subjects
- reason treatment was not completed [2]: GI discomfort
